Results on 16 molecules are retold here after ChEMBL document CHEMBL1134976, “SB-656104-A: a novel 5-HT(7) receptor antagonist with improved in vivo properties” (Bioorg Med Chem Lett, 2002).

Data set [1] concerns the target T1, Alpha-1B adrenergic receptor (Homo sapiens, UniProt P35368).
T1 sequence (P35368 whole entry): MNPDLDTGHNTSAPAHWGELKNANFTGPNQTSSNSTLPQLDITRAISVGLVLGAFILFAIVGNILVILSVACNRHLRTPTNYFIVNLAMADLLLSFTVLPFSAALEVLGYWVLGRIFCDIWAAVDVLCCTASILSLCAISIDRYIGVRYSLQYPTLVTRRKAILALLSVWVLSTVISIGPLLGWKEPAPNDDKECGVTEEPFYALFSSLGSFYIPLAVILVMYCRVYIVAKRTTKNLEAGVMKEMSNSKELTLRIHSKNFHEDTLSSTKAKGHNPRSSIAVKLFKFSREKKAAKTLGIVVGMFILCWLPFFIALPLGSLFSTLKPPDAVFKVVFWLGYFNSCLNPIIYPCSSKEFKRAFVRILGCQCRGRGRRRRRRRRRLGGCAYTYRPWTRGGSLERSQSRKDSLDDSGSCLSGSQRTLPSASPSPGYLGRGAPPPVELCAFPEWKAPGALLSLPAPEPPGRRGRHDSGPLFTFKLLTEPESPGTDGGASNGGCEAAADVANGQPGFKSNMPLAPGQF
Kind of data set: Binding affinity towards Alpha-1B adrenergic receptor.

The target of data set [2] is T2, 5-hydroxytryptamine receptor 7 (Homo sapiens, UniProt P34969). Kind of data set: Binding affinity for human cloned 5-hydroxytryptamine 7 receptor in HEK 293 using [3H]5-CT as a radioligand. Format: cell-based, HEK293.
T2 sequence (P34969 whole entry): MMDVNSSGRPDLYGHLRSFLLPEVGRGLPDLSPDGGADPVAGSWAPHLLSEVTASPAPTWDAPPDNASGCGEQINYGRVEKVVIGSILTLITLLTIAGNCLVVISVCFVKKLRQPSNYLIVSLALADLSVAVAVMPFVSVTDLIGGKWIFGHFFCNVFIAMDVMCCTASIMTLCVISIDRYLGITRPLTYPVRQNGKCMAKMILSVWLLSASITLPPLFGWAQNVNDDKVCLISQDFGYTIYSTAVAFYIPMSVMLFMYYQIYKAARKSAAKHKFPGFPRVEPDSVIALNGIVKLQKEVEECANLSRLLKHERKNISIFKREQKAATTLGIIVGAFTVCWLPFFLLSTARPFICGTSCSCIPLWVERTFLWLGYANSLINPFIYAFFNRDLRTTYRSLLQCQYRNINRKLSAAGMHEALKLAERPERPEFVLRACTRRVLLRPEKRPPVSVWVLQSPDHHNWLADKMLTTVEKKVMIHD
The nature of data set [3]: Half life was determined. The data set is classed as ADME, organism-based. The settings on record: rat, in vivo.
A short description of data set [4]: Compound was tested for the lower blood clearance in rat. The data set is classed as ADME, organism-based. Particulars: read-out: CLb.
Data set [5] can be described thus: Steady state brain :blood ratio was determined. The data set is classed as ADME, organism-based. Particulars: rat, brain and blood.
Data set [6] deals with Cavia porcellus. Description: Effective dose to antagonise 5-CT induced hypothermia in guinea pig at 1 hour after intraperitoneal administration. Particulars: ip.
For data set [7], the target named is 5-hydroxytryptamine receptor 2B (Homo sapiens, UniProt P41595). Description: Compound was tested for its binding affinity for human cloned 5-hydroxytryptamine 2B receptor in HEK 293 using [3H]ketanserin as a radioligand. Format: cell-based, HEK293.
Sequence of 5-hydroxytryptamine receptor 2B (P41595 whole entry): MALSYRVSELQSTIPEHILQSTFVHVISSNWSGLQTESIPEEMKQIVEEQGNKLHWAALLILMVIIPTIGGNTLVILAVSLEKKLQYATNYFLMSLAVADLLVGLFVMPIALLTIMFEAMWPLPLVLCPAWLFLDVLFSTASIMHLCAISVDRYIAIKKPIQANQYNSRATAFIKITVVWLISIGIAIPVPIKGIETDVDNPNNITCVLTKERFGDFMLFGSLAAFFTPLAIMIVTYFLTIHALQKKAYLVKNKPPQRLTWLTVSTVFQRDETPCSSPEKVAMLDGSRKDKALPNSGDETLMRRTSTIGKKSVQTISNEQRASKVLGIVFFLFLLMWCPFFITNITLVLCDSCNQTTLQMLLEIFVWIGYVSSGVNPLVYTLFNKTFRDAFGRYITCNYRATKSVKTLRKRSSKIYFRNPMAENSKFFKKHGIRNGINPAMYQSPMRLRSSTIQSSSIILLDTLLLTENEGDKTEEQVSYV
Data set [8] concerns the target 5-hydroxytryptamine receptor 2A (Homo sapiens, UniProt P28223). Description: Compound was tested for its binding affinity for human cloned 5-hydroxytryptamine 2A receptor in HEK 293 using [3H]ketanserin as a radioligand. The data set is classed as cell-based, HEK293.
Data set [9] deals with T3, 5-hydroxytryptamine receptor 1A (Homo sapiens, UniProt P08908).
T3 sequence (P08908 whole entry): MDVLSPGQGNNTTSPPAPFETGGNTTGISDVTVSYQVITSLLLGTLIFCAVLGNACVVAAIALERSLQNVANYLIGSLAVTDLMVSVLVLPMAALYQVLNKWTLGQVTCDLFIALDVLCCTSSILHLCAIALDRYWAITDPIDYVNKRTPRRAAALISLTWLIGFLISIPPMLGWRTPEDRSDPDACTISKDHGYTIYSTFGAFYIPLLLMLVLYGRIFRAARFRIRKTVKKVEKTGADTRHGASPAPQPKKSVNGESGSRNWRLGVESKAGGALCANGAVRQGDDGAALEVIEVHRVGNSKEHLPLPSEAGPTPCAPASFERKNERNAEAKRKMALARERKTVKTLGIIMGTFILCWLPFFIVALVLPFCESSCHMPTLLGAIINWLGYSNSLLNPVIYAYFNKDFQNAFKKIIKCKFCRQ
Kind of data set: Compound was tested for its binding affinity for human cloned 5-hydroxytryptamine 1A receptor in HEK 293 using [3H]5-CT as a radioligand. Format: cell-based, HEK293.

The target in data set [10] is 5-hydroxytryptamine receptor 1B (Homo sapiens, UniProt P28222). Kind of data set: Compound was tested for its binding affinity for human cloned 5-hydroxytryptamine 1B receptor in CHO using [3H]5-HT as a radioligand.
Sequence of 5-hydroxytryptamine receptor 1B (P28222 whole entry): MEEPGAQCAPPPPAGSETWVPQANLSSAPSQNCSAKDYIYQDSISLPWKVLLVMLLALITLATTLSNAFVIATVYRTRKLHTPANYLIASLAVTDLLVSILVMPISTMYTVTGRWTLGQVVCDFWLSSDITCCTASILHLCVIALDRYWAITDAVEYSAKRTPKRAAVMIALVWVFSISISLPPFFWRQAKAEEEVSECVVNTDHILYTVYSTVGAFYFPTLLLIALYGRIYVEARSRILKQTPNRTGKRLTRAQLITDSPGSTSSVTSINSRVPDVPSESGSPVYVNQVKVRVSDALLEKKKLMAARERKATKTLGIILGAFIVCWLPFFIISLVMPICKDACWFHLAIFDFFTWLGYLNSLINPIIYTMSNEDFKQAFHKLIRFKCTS
Data set [11] concerns the target 5-hydroxytryptamine receptor 1E (Homo sapiens, UniProt P28566). Description: Compound was tested for its binding affinity for human cloned 5-hydroxytryptamine 1E receptor in CHO using [3H]5-HT as a radioligand.
In data set [12] the target is 5-hydroxytryptamine receptor 1D (Homo sapiens, UniProt P28221). Kind of data set: Compound was tested for its binding affinity for human cloned 5-hydroxytryptamine 1D receptor in CHO using [3H]5-HT as a radioligand.
Sequence of 5-hydroxytryptamine receptor 1D (P28221 whole entry): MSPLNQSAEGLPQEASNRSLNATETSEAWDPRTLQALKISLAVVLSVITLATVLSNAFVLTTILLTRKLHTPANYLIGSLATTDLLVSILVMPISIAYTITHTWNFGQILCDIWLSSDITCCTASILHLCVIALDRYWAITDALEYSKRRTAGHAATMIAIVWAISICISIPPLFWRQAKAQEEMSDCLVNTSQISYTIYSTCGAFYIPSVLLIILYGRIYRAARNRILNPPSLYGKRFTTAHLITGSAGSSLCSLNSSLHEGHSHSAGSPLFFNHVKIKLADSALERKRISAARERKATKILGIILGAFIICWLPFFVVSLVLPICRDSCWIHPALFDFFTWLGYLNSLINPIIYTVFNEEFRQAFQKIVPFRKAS
Data set [13] can be described thus: Oral bioavailability in rat. Particulars: in vivo. Format: ADME, organism-based.
The target in data set [14] is T4, 5-hydroxytryptamine receptor 2C (Homo sapiens, UniProt P28335).
T4 sequence (P28335 whole entry): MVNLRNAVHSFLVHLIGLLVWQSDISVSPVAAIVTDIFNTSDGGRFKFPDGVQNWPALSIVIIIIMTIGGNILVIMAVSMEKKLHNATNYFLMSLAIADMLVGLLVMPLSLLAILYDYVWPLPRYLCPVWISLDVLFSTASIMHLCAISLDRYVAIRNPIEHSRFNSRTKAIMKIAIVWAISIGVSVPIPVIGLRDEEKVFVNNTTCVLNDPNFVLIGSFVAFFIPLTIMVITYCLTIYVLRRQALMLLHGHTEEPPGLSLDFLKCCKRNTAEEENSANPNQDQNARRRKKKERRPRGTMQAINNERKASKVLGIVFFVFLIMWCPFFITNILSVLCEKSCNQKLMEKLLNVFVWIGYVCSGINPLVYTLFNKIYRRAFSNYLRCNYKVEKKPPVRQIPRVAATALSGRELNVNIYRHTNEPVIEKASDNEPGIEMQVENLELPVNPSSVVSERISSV
Kind of data set: Compound was tested for its binding affinity for human cloned 5-hydroxytryptamine 2C receptor in HEK 293 using [3H]mesulergine as a radioligand. The data set is classed as cell-based, HEK293.

Data set [15] is filed under the species Cavia porcellus. Kind of data set: Effective dose to antagonise 5-CT induced hypothermia in guinea pig at 2 hours. Format: functional.
Data set [16] concerns the target 5-hydroxytryptamine receptor 4 (Homo sapiens, UniProt Q13639). Kind of data set: Compound was tested for its binding affinity for 5-hydroxytryptamine 4 receptor.
For data set [17], the target named is T2, 5-hydroxytryptamine receptor 7. Description: Compound was tested for its binding affinity in 5-hydroxytryptamine 7 receptor (using human cloned receptors in HEK 293 and [3H]5-CT as a radioligand ). The data set is classed as cell-based, HEK293.
Data set [18] concerns the target 5-hydroxytryptamine receptor 6 (Homo sapiens, UniProt P50406). Description: Compound was tested for its binding affinity in 5-hydroxytryptamine 6 receptor (using human cloned receptors in HeLa and [3H]LSD as a radioligand ).
Data set [19] concerns the target T5, 5-hydroxytryptamine receptor 1F (Homo sapiens, UniProt P30939).
T5 sequence (P30939 whole entry): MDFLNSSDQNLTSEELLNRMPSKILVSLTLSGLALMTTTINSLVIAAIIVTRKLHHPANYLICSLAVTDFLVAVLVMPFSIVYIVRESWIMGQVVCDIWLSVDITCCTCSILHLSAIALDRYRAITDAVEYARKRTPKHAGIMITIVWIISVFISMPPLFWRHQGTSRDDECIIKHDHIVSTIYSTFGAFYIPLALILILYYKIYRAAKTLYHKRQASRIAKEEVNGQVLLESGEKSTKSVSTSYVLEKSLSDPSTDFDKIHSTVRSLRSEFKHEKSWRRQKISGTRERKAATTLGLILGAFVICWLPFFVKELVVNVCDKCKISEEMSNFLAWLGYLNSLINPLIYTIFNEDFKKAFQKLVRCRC
Kind of data set: Compound was tested for its binding affinity for human cloned 5-hydroxytryptamine 1F receptor in CHO using [3H]5-HT as a radioligand.

The target in data set [20] is 5-hydroxytryptamine receptor 5A (Homo sapiens, UniProt P47898). Description: Compound was tested for its binding affinity in 5-hydroxytryptamine 5A receptor (using human cloned receptors in HEK 293 and [3H]5-CTas a radioligand ). Format: cell-based, HEK293.
Sequence of 5-hydroxytryptamine receptor 5A (P47898 whole entry): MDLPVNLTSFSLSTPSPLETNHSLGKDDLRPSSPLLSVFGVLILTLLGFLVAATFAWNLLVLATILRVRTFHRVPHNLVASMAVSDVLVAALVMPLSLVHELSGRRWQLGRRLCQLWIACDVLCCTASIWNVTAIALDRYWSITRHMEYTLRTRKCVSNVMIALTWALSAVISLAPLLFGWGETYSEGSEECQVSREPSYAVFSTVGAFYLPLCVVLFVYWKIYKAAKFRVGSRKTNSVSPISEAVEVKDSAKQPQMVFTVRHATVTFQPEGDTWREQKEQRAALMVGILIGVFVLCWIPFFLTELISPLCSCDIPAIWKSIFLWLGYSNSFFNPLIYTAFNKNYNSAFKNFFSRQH

For orientation: Ki means a dissociation constant, usually derived from enzyme kinetics or from competition with a known ligand. High values mean a looser hold on the target, low ones a stronger hold on the target. By half-life is commonly meant the time needed for the level to fall by half in the phase considered. A word on the Kp: it is the ratio of the level in a tissue or fluid to that in plasma or blood. The term ED50 denotes the midpoint of the dose-response relation. Read a low ED50 as greater potency. A word on the bioavailability: it is the share of a dose that reaches the circulation, judged against a reference dose that is usually intravenous. High values mean good availability, low ones poor availability.

Molecules are shown by their SMILES. A value given as a limit tells only on which side of the number the result lay.

Sequence of 5-hydroxytryptamine receptor 1E (P28566 whole entry): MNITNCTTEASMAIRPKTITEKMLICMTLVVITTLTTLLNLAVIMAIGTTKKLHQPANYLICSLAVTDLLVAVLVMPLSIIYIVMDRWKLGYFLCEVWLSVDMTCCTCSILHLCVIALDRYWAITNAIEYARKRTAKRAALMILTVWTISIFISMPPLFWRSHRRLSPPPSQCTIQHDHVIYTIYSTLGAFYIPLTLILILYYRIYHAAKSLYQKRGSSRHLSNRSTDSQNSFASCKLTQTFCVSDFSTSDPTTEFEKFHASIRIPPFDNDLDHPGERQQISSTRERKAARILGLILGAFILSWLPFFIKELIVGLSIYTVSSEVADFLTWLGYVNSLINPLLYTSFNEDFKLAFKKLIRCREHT
Sequence of 5-hydroxytryptamine receptor 4 (Q13639 whole entry): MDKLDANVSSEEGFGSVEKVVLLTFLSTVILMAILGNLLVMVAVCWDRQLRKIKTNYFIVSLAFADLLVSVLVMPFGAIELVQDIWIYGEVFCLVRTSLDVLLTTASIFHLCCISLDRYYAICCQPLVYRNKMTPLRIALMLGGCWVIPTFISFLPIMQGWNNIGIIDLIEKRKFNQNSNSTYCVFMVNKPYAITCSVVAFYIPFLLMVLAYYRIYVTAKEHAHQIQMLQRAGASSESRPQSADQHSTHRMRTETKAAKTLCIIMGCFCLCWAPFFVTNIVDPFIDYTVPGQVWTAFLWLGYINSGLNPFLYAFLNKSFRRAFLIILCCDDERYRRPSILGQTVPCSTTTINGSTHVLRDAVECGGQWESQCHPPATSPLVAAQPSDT
Sequence of 5-hydroxytryptamine receptor 6 (P50406 whole entry): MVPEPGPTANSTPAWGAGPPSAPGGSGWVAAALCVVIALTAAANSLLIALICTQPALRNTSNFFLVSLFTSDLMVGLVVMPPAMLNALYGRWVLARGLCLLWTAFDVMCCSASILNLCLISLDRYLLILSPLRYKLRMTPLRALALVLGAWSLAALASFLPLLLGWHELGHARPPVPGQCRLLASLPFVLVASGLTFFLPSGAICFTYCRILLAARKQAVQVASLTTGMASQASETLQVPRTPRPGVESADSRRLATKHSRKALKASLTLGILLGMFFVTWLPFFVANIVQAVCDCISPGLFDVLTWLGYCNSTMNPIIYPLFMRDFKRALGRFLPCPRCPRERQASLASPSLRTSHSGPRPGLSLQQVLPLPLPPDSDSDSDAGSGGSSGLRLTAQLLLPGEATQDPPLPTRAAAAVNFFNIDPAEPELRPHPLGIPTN
Sequence of 5-hydroxytryptamine receptor 2A (P28223 whole entry): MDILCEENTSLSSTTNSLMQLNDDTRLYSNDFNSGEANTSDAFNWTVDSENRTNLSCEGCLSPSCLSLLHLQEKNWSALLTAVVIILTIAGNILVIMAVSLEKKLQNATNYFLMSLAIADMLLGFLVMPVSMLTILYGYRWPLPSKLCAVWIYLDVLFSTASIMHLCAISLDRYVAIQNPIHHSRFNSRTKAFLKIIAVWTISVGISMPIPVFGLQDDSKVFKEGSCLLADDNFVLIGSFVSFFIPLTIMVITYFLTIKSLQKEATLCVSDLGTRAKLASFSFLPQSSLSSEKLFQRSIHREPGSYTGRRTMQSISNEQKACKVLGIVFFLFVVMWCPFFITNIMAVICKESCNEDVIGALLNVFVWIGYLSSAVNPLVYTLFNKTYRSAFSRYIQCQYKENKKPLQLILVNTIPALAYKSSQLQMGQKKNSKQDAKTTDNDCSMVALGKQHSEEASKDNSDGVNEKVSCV

Take `O=S(=O)(c1ccc2cc[nH]c2c1)N1CCC[C@@H]1CCN1CCC(Oc2ccc(F)cc2)CC1`: the results for the Ki in data set [1] and in [2] were 30.2 nM and 0.501 nM, respectively.
For `CC1CCN(CC[C@H]2CCCN2S(=O)(=O)c2ccc3oc(O)nc3c2)CC1`, affinity in data set [2] was put at a Ki of 166 nM.
As for `CC1CCN(CC[C@H]2CCCN2S(=O)(=O)c2ccc3cc[nH]c3c2)CC1`, the Ki is more than 10000 nM in [1] and 2.4 nM in data set [2].
On the same counts, the results for `O=S(=O)(c1ccc2cc[nH]c2c1)N1CCC[C@@H]1CCN1CCC(c2c[nH]c3ccccc23)CC1` are 1.29 nM and 0.676 nM.
In data set [3], `CC1CCN(CC[C@H]2CCCN2S(=O)(=O)c2cccc(O)c2)CC1.Cl` came in with a half-life of less than 0.5 h. Moreover, in [4], the clearance is 140 mL/min/kg. Moreover, the Kp in data set [5] was determined as 0.8. In the data set with Cavia porcellus [6], this molecule had a median effective dose (ED50) of 3 mg/kg.
On to `O=S(=O)(c1ccc2cc[nH]c2c1)N1CCC[C@@H]1CCN1CCC(n2c(O)nc3ccccc32)CC1`, for which the Ki was 43.7 nM in data set [1] and 0.708 nM in [2].
The matching figures for `O=C(c1ccc(F)cc1)C1CCN(CC[C@H]2CCCN2S(=O)(=O)c2ccc3cc[nH]c3c2)CC1`: 19.1 nM and 0.832 nM.
Consider `CC1CCN(CC[C@H]2CCCN2S(=O)(=O)c2ccc3[nH]nnc3c2)CC1`, for which, in data set [2], the Ki was 25.7 nM.
In turn, `CC1CCN(CC[C@H]2CCCN2S(=O)(=O)c2ccc3[nH]cnc3c2)CC1` gave a Ki in data set [2] of 6.46 nM.
As for `O=C(c1ccc(Cl)cc1)C1CCN(CC[C@H]2CCCN2S(=O)(=O)c2ccc3cc[nH]c3c2)CC1`, the Ki is 93.3 nM in data set [1] and 0.794 nM in data set [2].
Turning to `O=S(=O)(c1ccc2cc[nH]c2c1)N1CCC[C@@H]1CCN1CCC(Oc2ccc(Cl)cc2)CC1`, the Ki in [7] is 91.2 nM; in [8], 63.1 nM; in data set [9], 562 nM; in data set [10], 631 nM; in [11], more than 5010 nM; in data set [12] it was 25.1 nM. Further, the Ki in data set [14] is 269 nM; in data set [16], 1910 nM; in data set [17], 2 nM; in data set [18], 851 nM; in data set [19], more than 2000 nM; in [20], 182 nM. The molecule also had a half-life in data set [3] of 2 h. In data set [4], the clearance was determined as 57 mL/min/kg. For the same molecule, the bioavailability in [13] is 16%. In addition, in [5], the concentration ratio (Kp) amounted to 0.9. This molecule also showed an ED50 in the data set filed under Cavia porcellus [15] of 2 mg/kg.
Turning to `O=c1oc2ccccc2n1C1CCN(CC[C@H]2CCCN2S(=O)(=O)c2ccc3cc[nH]c3c2)CC1`, the Ki in data set [1] was 309 nM; in data set [2] it was 1.82 nM.
In [2], `CC1CCN(CC[C@H]2CCCN2S(=O)(=O)c2ccc3c(c2)NCC3)CC1` showed a Ki of 22.9 nM.
On the same count and under the same terms, with `CC1CCN(CC[C@H]2CCCN2S(=O)(=O)c2ccc3c[nH]nc3c2)CC1` the figure was 6.46 nM.
As for `O=S(=O)(c1ccc2cc[nH]c2c1)N1CCC[C@@H]1CCN1CCC(c2cc3ccccc3[nH]2)CC1`, the Ki in data set [1] was 89.1 nM; in [2], 6.31 nM.
As for `CC1CCN(CC[C@H]2CCCN2S(=O)(=O)c2ccc3[nH]c(O)nc3c2)CC1`, the affinity in data set [2], expressed as Ki, was 57.5 nM.
